Results taken from patent publication US20090203709A1, “Pharmaceutical Dosage Form For Oral Administration Of Tyrosine Kinase Inhibitor” (ABBOTT LABORATORIES, priority 2008, published 2009).
Marks after values point to notes of the source that are not given here.

Assay: Safety in study M04-710 (adverse events, DLTs)
Format: in vivo, human
[1] = all cycles, N = 27, highest grade per subject
[2] = all cycles, N = 27, includes Skin Reaction, Skin Lesion, and Rash

With `Cc1ccc(F)c(NC(=O)Nc2ccc(-c3cccc4[nH]nc(N)c34)cc2)c1` [ABT-869, N-[4-(3-amino-1H-indazol-4-yl)phenyl]-N′-(2-fluoro-5-methylphenyl)urea] the “DLT: Grade 3 hypertension” value (0.10 mg/kg) was 1 patient, the “DLT: Grade 3 hypertension” value (0.25 mg/kg) was 1 patient and the “DLT: Grade 3 proteinuria” value (0.25 mg/kg) was 1 patient. The “DLT: Grade 3 proteinuria and Grade 3 hypertension” value (0.30 mg/kg) was 2 patients, the “DLT: Grade 3 fatigue” value (10 mg/body) was 1 patient and the “Anorexia, Overall” value (all cycles, N = 27) was 7 (25.9) n (%). The “Arthralgia, Overall” value (all cycles, N = 27) was 6 (22.2) n (%), the “Constipation, Overall” value (all cycles, N = 27) was 6 (22.2) n (%) and the “Diarrhoea, Overall” value (all cycles, N = 27) was 7 (25.9) n (%). The “Fatigue, Overall” value (all cycles, N = 27) was 22 (81.5) n (%), the “Hypertension, Overall” value (all cycles, N = 27) was 12 (44.4) n (%) and the “Myalgia, Overall” value (all cycles, N = 27) was 15 (55.6) n (%). The “Nausea, Overall” value (all cycles, N = 27) was 5 (18.5) n (%), the “Oral Pain, Overall” value (all cycles, N = 27) was 11 (40.7) n (%) and the “Proteinuria, Overall” value (all cycles, N = 27) was 6 (22.2) n (%). For the same compound, the “Vomiting, Overall” value (all cycles, N = 27) was 5 (18.5) n (%), the “Anorexia, Grade 1” value [1] was 6 n and the “Anorexia, Grade 2” value [1] was 1 n. For the same compound, the “Anorexia, Grade 3/4” value [1] was 0 n, the “Arthralgia, Grade 1” value [1] was 5 n and the “Arthralgia, Grade 2” value [1] was 1 n. For the same compound, the “Arthralgia, Grade 3/4” value [1] was 0 n, the “Constipation, Grade 1” value [1] was 0 n and the “Constipation, Grade 2” value [1] was 6 n. For the same compound, the “Constipation, Grade 3/4” value [1] was 0 n, the “Diarrhoea, Grade 1” value [1] was 6 n and the “Diarrhoea, Grade 2” value [1] was 1 n. For the same compound, the “Diarrhoea, Grade 3/4” value [1] was 0 n, the “Fatigue, Grade 1” value [1] was 14 n and the “Fatigue, Grade 2” value [1] was 4 n. For the same compound, the “Hypertension, Grade 1” value [1] was 0 n, the “Hypertension, Grade 2” value [1] was 8 n and the “Hypertension, Grade 3/4” value [1] was 4 n. For the same compound, the “Myalgia, Grade 1” value [1] was 9 n, the “Myalgia, Grade 2” value [1] was 6 n and the “Myalgia, Grade 3/4” value [1] was 0 n. The “Nausea, Grade 1” value [1] was 3 n, the “Nausea, Grade 2” value [1] was 2 n and the “Nausea, Grade 3/4” value [1] was 0 n. The “Oral Pain, Grade 1” value [1] was 9 n, the “Oral Pain, Grade 2” value [1] was 2 n and the “Oral Pain, Grade 3/4” value [1] was 0 n. For the same compound, the “Proteinuria, Grade 1” value [1] was 0 n, the “Proteinuria, Grade 2” value [1] was 2 n and the “Proteinuria, Grade 3/4” value [1] was 4 n. For the same compound, the “Vomiting, Grade 1” value [1] was 4 n, the “Vomiting, Grade 2” value [1] was 1 n and the “Vomiting, Grade 3/4” value [1] was 0 n. For the same compound, the “Skin Related Event, Grade 1” value [2] was 5 n, the “Skin Related Event, Grade 2” value [2] was 9 n and the “Skin Related Event, Grade 3/4” value [2] was 1 n. The “Skin Related Event, Overall” value [2] was 15 (55.6) n (%), the “Fatigue, Grade 3/4” value (all cycles, N = 27, occurred in cycle 3 or later) was 4** n and the dose-limiting toxicities (study M04-710) was “hypertension, proteinuria and fatigue are dose-limiting”. For the same compound, the reversibility of toxicities (study M04-710) was “treatable, or reversible with ABT-869 interruption”.
